# Reference: patent US20130178616A1, “USE OF MODIFIED OLIGO-B-(1,3)-GLUCANES FOR TREATING DISEASES OF THE IMMUNE SYSTEM OLIGO-B-(1,3V-GLUCANE-(1,3)-MANNOSE, OLIGO-B-(1,3)-GLUCANE-(1,3)-MANNITOL AND DERIVATIVES THEREOF, METHODS FOR PREPARING THE SAME AND DRUGS CONTAINING THEM” (ASE & BIO., priority 2006, published 2013)
# Key:
# Format in all cases: in vivo, Balb/c mice
# peripheral blood cells [1] = experiment: Differential count in the blood; details: 100 μg/mouse, same groups as Example 8; Giemsa staining; control PBS; FIG. 3
# Method: (§1) The control used is PBS. The dosages used are 100 μg/mouse.
# (§2) One or other of a control, LAM5, LAM7, A0 or A2O were injected, by peritoneal route, into a group of Balb/c mice (Jackson laboratory, Bar Harbor, Me., USA). 24 hours after the injection the mice were sacrificed. The peripheral blood was recovered from the orbital plexus in heparin (5 IU/ml) (Sigma).
# By using the same experimental groups as in Example 8, two additional microscope slides were prepared from each experimental sample. After Giemsa staining, the presence of individual types of cells i.e. monocytes, lymphocytes and granulocytes were evaluated for each slide with an optical microscope.
# peritoneal cells [2] = experiment: Differential count in the peritoneal cells; details: 100 μg/mouse, same groups as Example 8; Giemsa staining; control PBS; FIG. 4
# Method: as §1
# By using the same experimental groups as in Example 8, two additional microscope slides of each experimental sample were prepared. After Giemsa staining, the presence of individual types of cells i.e. macrophages, lymphocytes and mastocytes were evaluated for each slide with an optical microscope.
# peritoneal cells [3] = experiment: Phagocytosis of HEMA particles by cells obtained from the peritoneal cavity after injection of the oligosaccharide; details: 100 μg/mouse intraperitoneal, after 24 hours, control PBS, cells with at least six HEMA particles positive, FIG. 2
# Method: as §1
# One or other of a control, LAM7, LAM5, A0 or A2 were injected, by intraperitoneal route, into a group of Balb/c mice (Jackson laboratory, Bar Harbor, Me., USA).
# After 24 hours, the mice were sacrificed, the peritoneal cells were collected in a Hanks medium (Sigma).
# After counting of the cells in a haemocytometer, the peritoneal cells were diluted to 1×10^7 in an RPMI 1640 medium (Sigma) with 5% foetal calf serum (Hyclone, Logan, Utah, USA). 2×10^6 cells in 0.2 ml of RPMI 1640 medium with 5% foetal calf serum added were mixed with the same volume of HEMA particles (5×10^8/ml).
# The suspension was incubated for 60 minutes at 37° C. under occasional moderate stirring. The incubation was stopped by centrifugation (150 g for 5 minutes) and the pellet was replaced in suspension.
# The macrophages with ingested particles were counted under an optical microscope in smears stained with Accustain (modified Wright stain, Sigma).
# The cells surrounding at least six particles were considered as being positive.
# peripheral blood cells [4] = experiment: Phagocytosis of HEMA particles by peripheral blood cells after injection of the oligosaccharide; details: 100 μg/mouse by peritoneal route, 24 hours after injection, control PBS, cells with at least three HEMA particles positive, FIG. 1
# Method: as §1, §2
# After counting, a test for phagocytosis of HEMA particles (synthetic microspheres prepared from 2-hydroxyethylmethacrylate copolymer) was carried out as described in: Rembaum et al., 1976, Vetvicka et al. 1982, Bilej et al., 1989. 0.1 ml of heparinized fresh blood was added to 0.05 ml of diluted HEMA particles (5×10^8/ml) and incubated for 60 minutes at 37° C. under occasional moderate stirring.
# At the end of the incubation, the cell suspension was smeared onto microscope slides. The smears were evaluated under an optical microscope after Giemsa staining.
# Cells surrounding at least three particles were considered to be positive.
compound,measurement,setting,value
"OC[C@H]1O[C@@H](O[C@@H]2[C@@H](O)[C@H](O[C@@H]3[C@@H](O)[C@H](O[C@@H]4[C@@H](O)[C@H](O[C@@H]5[C@@H](O)[C@H](O[C@@H]6[C@H](O)[C@H](O)O[C@H](CO)[C@H]6O)O[C@H](CO)[C@H]5O)O[C@H](CO)[C@H]4O)O[C@H](CO)[C@H]3O)O[C@H](CO)[C@H]2O)[C@H](O)[C@@H](O)[C@@H]1O [Product A2, β-D-glucopyranosyl-(1→3)-β-D-glucopyranosyl-(1→3)-β-D-glucopyranosyl-(1→3)-β-D-glucopyranosyl-(1→3)-β-D-glucopyranosyl-(1→3)-β-D-mannopyranose]",number of granulocytes in the peripheral blood,peripheral blood cells [1],increase the number
same,number of monocytes in the peripheral blood,peripheral blood cells [1],increase the number
same,number of granulocytes in the peritoneal cavity,peritoneal cells [2],increase the number
same,number of monocytes in the peritoneal cavity,peritoneal cells [2],increase the number
same,phagocytosis in the granulocytes of peritoneal macrophages,peritoneal cells [3],strongly stimulate phagocytosis
same,phagocytosis in the monocytes of peritoneal macrophages,peritoneal cells [3],strongly stimulate phagocytosis
same,phagocytosis in the granulocytes,peripheral blood cells [4],strongly stimulate phagocytosis
same,phagocytosis in the monocytes,peripheral blood cells [4],strongly stimulate phagocytosis
